{
  "source": "patent US6903132B2",
  "about": "“Non-peptide GnRH agents, pharmaceutical compositions and methods for their use” (Agouron Pharmaceuticals, Inc., priority 2002, dated 2005)",
  "key": {"[1]": {"assay": "Pharmacokinetics in male rats", "format": "in vivo, rat", "settings": "for M T1/ hr: male rats (MR); for M T1/ hr / Tmax: dosed orally at 50 mg/kg; for M Fp. / Tmax: male rats; for M Fp.: oral bioavailability, AUCp.o./AUCi.v.; for Tmax: rat, plasma, po, read-out: MR Tmax hr", "procedure": "Rats (male or female, 200-225 g) are prepared with indwelling jugular vein cannula as described by Harms et al., Applied Physiol. 36:391-398 (1974), and allowed to recover overnight with free access to the standard vivarium chow and water. The compounds are administered to female rats at 5 mg/kg i.v. and 10 mg/kg p.o. as solutions in 10% DMSO+10% cremophor+80% saline or 10% cremophor+90% saline. The male rats are dosed orally at 50 mg/kg in the vehicles specified in Table 3. The blood samples are withdrawn at specific times, plasma is immediately separated and compound extracted with ethyl acetate. The samples are analyzed by LC-MS using 30-90% gradient of ACN in 50 mM ammonium acetate.\nThe pharmacokinetic parameters are calculated using WinNonlin software (Scientific Consulting Inc.). The bioavailability is calculated as AUCp.o./AUCi.v., where AUCp.o. and AUCi.v. are areas under the plasma concentration-time curve after oral and i.v. administration, respectively."}, "[2]": {"assay": "In vitro metabolism: disappearance of parent compound in liver microsomes (male rat)", "format": "in vitro ADME", "settings": "5 uM compound, 0.5 mg/ml microsomal protein, 2 mM NADPH, 30 minutes at 37° C.", "procedure": "(§1) Human, rat, dog, and monkey liver microsomes are isolated by differential centrifugation. Specimens of human liver were obtained from the International Institute for the Advancement of Medicine (Scranton, Pa.). The disappearance of the parent compound is studied in a mixture containing 5 uM compound, 0.5 mg/ml microsomal protein, and 2 mM NADPH in 50 mM K Phosphate buffer, pH 7.4. Samples are incubated for 30 minutes at 37° C. The reaction is terminated by the addition of acetonitrile and compounds analyzed by LC-MS as described above."}, "[3]": {"assay": "In vitro metabolism: disappearance of parent compound in liver microsomes", "format": "in vitro ADME", "settings": "human liver microsomes; 5 uM compound, 0.5 mg/ml microsomal protein, 2 mM NADPH, 30 minutes at 37° C.", "procedure": "as §1"}, "[4]": {"target": "T1, rat GnRH receptor (Rattus norvegicus, UniProt P30969)", "T1 construct": "rat pituitaries (Pel Freez Biologicals, Rogers, Ark.) are homogenized in buffer A; tissue Pel Freez Biologicals; host or cells: rat pituitaries", "T1 sequence (P30969 1-327)": "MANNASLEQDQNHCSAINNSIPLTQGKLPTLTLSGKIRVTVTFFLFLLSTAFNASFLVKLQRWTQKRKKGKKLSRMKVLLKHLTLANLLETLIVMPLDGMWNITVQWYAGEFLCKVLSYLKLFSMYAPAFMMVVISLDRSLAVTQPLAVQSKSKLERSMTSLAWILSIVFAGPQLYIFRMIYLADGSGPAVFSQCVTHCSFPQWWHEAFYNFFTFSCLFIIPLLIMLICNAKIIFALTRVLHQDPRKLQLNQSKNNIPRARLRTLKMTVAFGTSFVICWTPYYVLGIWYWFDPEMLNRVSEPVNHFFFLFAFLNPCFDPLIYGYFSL", "assay": "Radioligand binding assay: inhibition of binding of 125I-GnRH-A to GnRH receptors (membranes)", "settings": "competition with 125I-GnRH-A, Ki calculated from IC50 (Cheng et al.)", "in_short": "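Membranes from HEK 293 expressing mouse or human receptor, or rat pituitaries, incubated 1 h at RT with ~0.04–0.06 nM ¹²⁵I-[des-Gly¹⁰,D-Ala⁶]GnRH ethylamide and competitor (0.1–10,000 nM) in HEPES pH 7.4 with MgCl2, EDTA, BSA. Filtration onto PEI-soaked GF/C filters, scintillation counting; Ki from IC50 by Cheng–Prusoff.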"}, "[5]": {"assay": "In vitro metabolism: disappearance of parent compound in liver microsomes (female rat)", "format": "in vitro ADME", "settings": "5 uM compound, 0.5 mg/ml microsomal protein, 2 mM NADPH, 30 minutes at 37° C.", "procedure": "as §1"}},
  "note": "Where “and” joins values, the source holds several entries; their conditions need not be identical. Identical values can stand only once.",
  "data": [
    {"smiles": "Cc1cc2c(cc1Cc1ccc(C(=O)NNc3cc(C)c4c(C)nn(C)c4n3)o1)C(C)(C)CCC2(C)C", "note": "[Example C1, 5-[(3,5,5,8,8-Pentamethyl-5,6,7,8-tetrahydro-2-naphthalenyl)methyl]-N′-(1,3,4-trimethyl-1H-pyrazolo[3,4-b]pyridin-6yl)-2-furohydrazide]", "values": [
      {"measurement": "M T1/ hr", "setting": "[1]", "value": 1.3, "unit": "h"},
      {"measurement": "M Fp.", "setting": "[1]", "value": 1, "unit": "%"},
      {"measurement": "Tmax", "setting": "[1]", "value": 1, "unit": "h"},
      {"measurement": "Male t % p. 30′", "setting": "[2]", "value": 99, "unit": "%"},
      {"measurement": "Huma % p. 30′", "setting": "[3]", "value": "63% and 54% and 37% and 38%"},
      {"measurement": "Ki", "setting": "[4]", "value": 6.5, "unit": "nM"}
    ]},
    {"smiles": "COc1cc2c(cc1Cc1ccc(C(=O)NNc3cc(C)c4c(C)nn(C)c4n3)o1)C(C)(C)CCC2(C)C", "note": "[Example C2, 5-[(3-Methoxy-5,5,8,8-tetramethyl-5,6,7,8-tetrahydro-2-naphthalenyl)methyl]-N′-(1,3,4-trimethyl-1H-pyrazolo[3,4-b]pyridin-6-yl)-2-furohydrazide]", "values": [
      {"measurement": "M T1/ hr", "setting": "[1]", "value": 1.2, "unit": "h"},
      {"measurement": "M Fp.", "setting": "[1]", "value": 4, "unit": "%"},
      {"measurement": "Tmax", "setting": "[1]", "value": 1, "unit": "h"},
      {"measurement": "Fem. t % rem. 30′", "setting": "[5]", "value": 18, "unit": "%"},
      {"measurement": "Male t % p. 30′", "setting": "[2]", "value": 97, "unit": "%"},
      {"measurement": "Huma % p. 30′", "setting": "[3]", "value": 40, "unit": "%"},
      {"measurement": "Ki", "setting": "[4]", "value": 32, "unit": "nM"}
    ]}
  ]
}
